The results in this text go back to US20260242419A1, “A CYCLIC PEPTIDE FOR TRAPPING INTERLEUKIN-1 BETA” (Merck Sharp & Dohme LLC, priority 2023, published 2026).

Starred links: 1 amine or outer side, 2 acyl side, 3 side chain; linkers in the order of their positions; H or OH if unused. Non-standard residues stand in square brackets, D forms with d. Residues, ends and D or L forms follow the SMILES beside them. Phe(4-(cis-4-COOH-cHex)) = N[C@@H](Cc1ccc([C@H]2CC[C@@H](C(=O)O)CC2)cc1)C(=O)O; dPro(4R-(4-pyridylmethyl)) = O=C(O)[C@H]1C[C@@H](Cc2ccncc2)CN1; Trp(βS-Me,4-F) = C[C@@H](c1c[nH]c2cccc(F)c12)[C@H](N)C(=O)O; Bip(4'-COOH) = N[C@@H](Cc1ccc(-c2ccc(C(=O)O)cc2)cc1)C(=O)O; Ala(1-bicyclo(1.1.1)pentyl) = N[C@@H](CC12CC(C1)C2)C(=O)O; X11 = O=C([C@H]1C[C@@H](Cc2ccc(F)c3ccccc23)CN1[*:1])[*:2]; dPro(4R-Bzl(4-F)) = O=C(O)[C@H]1C[C@@H](Cc2ccc(F)cc2)CN1; dPro(3S-(4-F-Bn)) = O=C(O)[C@@H]1NCC[C@@H]1Cc1ccc(F)cc1; X20 = O=C([C@H]1C[C@@H](Cc2ccc(Cl)cc2)CN1[*:1])[*:2]; X29 = O=C([C@H]1[C@@H](Cc2ccc(Cl)cc2)CCN1[*:1])[*:2]; X4 = O=C([C@H]1[C@@H](Cc2ccncc2)CCN1[*:1])[*:2]; Ala(pyrimidin-5-yl) = N[C@@H](Cc1cncnc1)C(=O)O; Phe(4-COOH) = N[C@@H](Cc1ccc(C(=O)O)cc1)C(=O)O; Bip = N[C@@H](Cc1ccc(-c2ccccc2)cc1)C(=O)O; Pro(cis-4-F) = O=C(O)[C@@H]1C[C@H](F)CN1; X6 = O=C([C@H](Cc1ccncn1)N[*:1])[*:2]; cisHyp = O=C(O)[C@@H]1C[C@H](O)CN1; d(αMeD) = C[C@@](N)(CC(=O)O)C(=O)O; 3Pal = N[C@@H](Cc1cccnc1)C(=O)O; 4Pal = N[C@@H](Cc1ccncc1)C(=O)O; aThr = C[C@H](O)[C@H](N)C(=O)O; Dab = NCC[C@H](N)C(=O)O; Aib = CC(C)(N)C(=O)O

The experiment deals with T1, IL-1β (Homo sapiens, UniProt P01584).
T1 construct: purchased BioLegend 579404
T1 sequence (P01584 117-269): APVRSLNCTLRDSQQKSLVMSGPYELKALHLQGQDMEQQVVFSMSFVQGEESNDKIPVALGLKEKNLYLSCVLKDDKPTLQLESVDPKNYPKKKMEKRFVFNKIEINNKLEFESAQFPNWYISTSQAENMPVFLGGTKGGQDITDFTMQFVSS
Put plainly: IL-6 assay in MRC5 cells: inhibition of IL-1β induced IL-6 secretion (AlphaLISA). The class given is cell-based. The following applies: inhibition of IL-1β induced IL-6 secretion in MRC5 cells; read-out: MRC5 IC50. Summed up:
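Compound was pre-incubated 1 h at ambient temperature with recombinant human IL-1β at 2λ EC80 before adding human lung fibroblast MRC5 cells (3000/well) in EMEM with 0.025% BSA. After overnight culture at 37 °C, 5% CO2, secreted IL-6 in conditioned medium was measured by AlphaLISA; IC50 from 4-parameter logistic fits.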
(Bead proximity is the source of the signal in Alpha formats.)
For orientation: IC50 means the concentration that inhibits the measured activity by half. `C[C@@H](c1c[nH]c2cccc(F)c12)[C@@H]1NC(=O)[C@@H]2C[C@H](F)CN2C(=O)CNC(=O)[C@H](Cc2ccc(C(=O)O)cc2)NC(=O)[C@H](Cc2ccncc2)NC(=O)[C@H](Cc2ccc(-c3ccc(C(=O)O)cc3)cc2)NC(=O)[C@H]2C[C@@H](Cc3ccc(F)cc3)CN2C(=O)CNC(=O)[C@H](CCN)NC(=O)[C@H](CCC(N)=O)NC(=O)[C@H](Cc2cccnc2)NC(=O)[C@@](C)(CC(=O)O)NC(=O)[C@H](Cc2c[nH]c3ccccc23)NC(=O)[C@H](CO)NC(=O)C(C)(C)NC1=O` [Example 323] (cyclo([Bip(4'-COOH)][4Pal][Phe(4-COOH)]G[Pro(cis-4-F)][Trp(βS-Me,4-F)][Aib]SW[d(αMeD)][3Pal]Q[Dab]G[dPro(4R-Bzl(4-F))])): the IC50 was 0.012 nM.

As to `C[C@@H](c1c[nH]c2cccc(F)c12)[C@@H]1NC(=O)[C@@H]2C[C@H](F)CN2C(=O)CNC(=O)[C@H](Cc2ccc(C(=O)O)cc2)NC(=O)[C@H](Cc2ccncc2)NC(=O)[C@H](Cc2ccc(-c3ccc(C(=O)O)cc3)cc2)NC(=O)[C@H]2C[C@@H](Cc3ccc(F)cc3)CN2C(=O)CNC(=O)[C@H](CCN)NC(=O)[C@H](CCC(N)=O)NC(=O)[C@H](Cc2ccncc2)NC(=O)[C@@](C)(CC(=O)O)NC(=O)[C@H](Cc2c[nH]c3ccccc23)NC(=O)[C@H](CO)NC(=O)C(C)(C)NC1=O` [Example 324] (cyclo([Bip(4'-COOH)][4Pal][Phe(4-COOH)]G[Pro(cis-4-F)][Trp(βS-Me,4-F)][Aib]SW[d(αMeD)][4Pal]Q[Dab]G[dPro(4R-Bzl(4-F))])), the IC50 turned out to be 0.013 nM.

As to `C[C@@H](c1c[nH]c2cccc(F)c12)[C@@H]1NC(=O)[C@@H]2C[C@H](O)CN2C(=O)CNC(=O)[C@H](Cc2ccc(C(=O)O)cc2)NC(=O)[C@H](Cc2ccncc2)NC(=O)[C@H](Cc2ccc(-c3ccc(C(=O)O)cc3)cc2)NC(=O)[C@H]2[C@@H](Cc3ccncc3)CCN2C(=O)CNC(=O)[C@H](CCN)NC(=O)[C@H](CCC(N)=O)NC(=O)[C@H](Cc2cncnc2)NC(=O)C(C)(C)NC(=O)[C@H](Cc2c[nH]c3ccccc23)NC(=O)[C@H](CO)NC(=O)C(C)(C)NC1=O` [Example 325] (cyclo([Bip(4'-COOH)][4Pal][Phe(4-COOH)]G[cisHyp][Trp(βS-Me,4-F)][Aib]SW[Aib][Ala(pyrimidin-5-yl)]Q[Dab]G[X4])), the IC50 amounted to 0.027 nM.

In the case of `C[C@@H](c1c[nH]c2cccc(F)c12)[C@@H]1NC(=O)[C@@H]2C[C@H](F)CN2C(=O)CNC(=O)[C@H](Cc2ccc(C(=O)O)cc2)NC(=O)[C@H](Cc2ccncc2)NC(=O)[C@H](Cc2ccc(-c3ccc(C(=O)O)cc3)cc2)NC(=O)[C@H]2[C@@H](Cc3ccncc3)CCN2C(=O)CNC(=O)[C@H](CCN)NC(=O)[C@H](CCC(N)=O)NC(=O)[C@H](Cc2cncnc2)NC(=O)C(C)(C)NC(=O)[C@H](Cc2c[nH]c3ccccc23)NC(=O)[C@H](CO)NC(=O)C(C)(C)NC1=O` [Example 326] (cyclo([Bip(4'-COOH)][4Pal][Phe(4-COOH)]G[Pro(cis-4-F)][Trp(βS-Me,4-F)][Aib]SW[Aib][Ala(pyrimidin-5-yl)]Q[Dab]G[X4])), the IC50 came out at 0.011 nM.

For `C[C@@H](c1c[nH]c2cccc(F)c12)[C@@H]1NC(=O)[C@@H]2C[C@H](F)CN2C(=O)CNC(=O)[C@H](Cc2ccc(C(=O)O)cc2)NC(=O)[C@H](Cc2ccncc2)NC(=O)[C@H](Cc2ccc(-c3ccc(C(=O)O)cc3)cc2)NC(=O)[C@H]2C[C@@H](Cc3ccc(F)c4ccccc34)CN2C(=O)CNC(=O)[C@H](CCN)NC(=O)[C@H](CCC(N)=O)NC(=O)[C@H](Cc2cncnc2)NC(=O)[C@@](C)(CC(=O)O)NC(=O)[C@H](Cc2c[nH]c3ccccc23)NC(=O)[C@H](CO)NC(=O)C(C)(C)NC1=O` [Example 327] (cyclo([Bip(4'-COOH)][4Pal][Phe(4-COOH)]G[Pro(cis-4-F)][Trp(βS-Me,4-F)][Aib]SW[d(αMeD)][Ala(pyrimidin-5-yl)]Q[Dab]G[X11])), the IC50 was 0.016 nM.

As to `C[C@@H](c1c[nH]c2cccc(F)c12)[C@@H]1NC(=O)[C@@H]2C[C@H](F)CN2C(=O)CNC(=O)[C@H](Cc2ccc(C(=O)O)cc2)NC(=O)[C@H](Cc2ccncc2)NC(=O)[C@H](Cc2ccc(-c3ccc(C(=O)O)cc3)cc2)NC(=O)[C@H]2[C@@H](Cc3ccncc3)CCN2C(=O)CNC(=O)[C@H](CCN)NC(=O)[C@H](CCC(N)=O)NC(=O)[C@H](Cc2cncnc2)NC(=O)[C@@](C)(CC(=O)O)NC(=O)[C@H](Cc2c[nH]c3ccccc23)NC(=O)[C@H](CO)NC(=O)C(C)(C)NC1=O` [Example 328] (cyclo([Bip(4'-COOH)][4Pal][Phe(4-COOH)]G[Pro(cis-4-F)][Trp(βS-Me,4-F)][Aib]SW[d(αMeD)][Ala(pyrimidin-5-yl)]Q[Dab]G[X4])), the half-inhibitory concentration (IC50) stood at 0.008 nM.

Turning to `C[C@@H](c1c[nH]c2cccc(F)c12)[C@@H]1NC(=O)[C@@H]2C[C@H](F)CN2C(=O)CNC(=O)[C@H](Cc2ccc(C(=O)O)cc2)NC(=O)[C@H](Cc2ccncc2)NC(=O)[C@H](Cc2ccc(-c3ccc(C(=O)O)cc3)cc2)NC(=O)[C@H]2C[C@@H](Cc3ccc(Cl)cc3)CN2C(=O)CNC(=O)[C@H](CCN)NC(=O)[C@H](CCC(N)=O)NC(=O)[C@H](Cc2cncnc2)NC(=O)[C@@](C)(CC(=O)O)NC(=O)[C@H](Cc2c[nH]c3ccccc23)NC(=O)[C@H](CO)NC(=O)C(C)(C)NC1=O` [Example 329] (cyclo([Bip(4'-COOH)][4Pal][Phe(4-COOH)]G[Pro(cis-4-F)][Trp(βS-Me,4-F)][Aib]SW[d(αMeD)][Ala(pyrimidin-5-yl)]Q[Dab]G[X20])), the IC50 stood at 0.009 nM.

On to `C[C@@H](c1c[nH]c2cccc(F)c12)[C@@H]1NC(=O)[C@@H]2C[C@H](F)CN2C(=O)CNC(=O)[C@H](Cc2ccc(C(=O)O)cc2)NC(=O)[C@H](Cc2ccncc2)NC(=O)[C@H](Cc2ccc(-c3ccc(C(=O)O)cc3)cc2)NC(=O)[C@H]2[C@@H](Cc3ccc(Cl)cc3)CCN2C(=O)CNC(=O)[C@H](CCN)NC(=O)[C@H](CCC(N)=O)NC(=O)[C@H](Cc2cncnc2)NC(=O)[C@@](C)(CC(=O)O)NC(=O)[C@H](Cc2c[nH]c3ccccc23)NC(=O)[C@H](CO)NC(=O)C(C)(C)NC1=O` [Example 330] (cyclo([Bip(4'-COOH)][4Pal][Phe(4-COOH)]G[Pro(cis-4-F)][Trp(βS-Me,4-F)][Aib]SW[d(αMeD)][Ala(pyrimidin-5-yl)]Q[Dab]G[X29])), for which the IC50 turned out to be 0.008 nM.

Regarding `C[C@@H](c1c[nH]c2cccc(F)c12)[C@@H]1NC(=O)[C@@H]2C[C@H](F)CN2C(=O)CNC(=O)[C@H](Cc2ccc(C(=O)O)cc2)NC(=O)[C@H](Cc2ccncc2)NC(=O)[C@H](Cc2ccc(-c3ccc(C(=O)O)cc3)cc2)NC(=O)[C@H]2[C@@H](Cc3ccc(F)cc3)CCN2C(=O)CNC(=O)[C@H](CCN)NC(=O)[C@H](CCC(N)=O)NC(=O)[C@H](Cc2cncnc2)NC(=O)[C@@](C)(CC(=O)O)NC(=O)[C@H](Cc2c[nH]c3ccccc23)NC(=O)[C@H](CO)NC(=O)C(C)(C)NC1=O` [Example 331] (cyclo([Bip(4'-COOH)][4Pal][Phe(4-COOH)]G[Pro(cis-4-F)][Trp(βS-Me,4-F)][Aib]SW[d(αMeD)][Ala(pyrimidin-5-yl)]Q[Dab]G[dPro(3S-(4-F-Bn))])), the IC50 was determined as 0.011 nM.

In the case of `C[C@@H](c1c[nH]c2cccc(F)c12)[C@@H]1NC(=O)[C@@H]2C[C@H](F)CN2C(=O)CNC(=O)[C@H](Cc2ccc(C(=O)O)cc2)NC(=O)[C@H](Cc2ccncc2)NC(=O)[C@H](Cc2ccc(-c3ccc(C(=O)O)cc3)cc2)NC(=O)[C@H]2C[C@@H](Cc3ccc(F)cc3)CN2C(=O)CNC(=O)[C@H](CCN)NC(=O)[C@H](CCC(N)=O)NC(=O)[C@H](Cc2ccncn2)NC(=O)[C@@](C)(CC(=O)O)NC(=O)[C@H](Cc2c[nH]c3ccccc23)NC(=O)[C@H](CO)NC(=O)C(C)(C)NC1=O` [Example 332] (cyclo([Bip(4'-COOH)][4Pal][Phe(4-COOH)]G[Pro(cis-4-F)][Trp(βS-Me,4-F)][Aib]SW[d(αMeD)][X6]Q[Dab]G[dPro(4R-Bzl(4-F))])), the IC50 is 0.013 nM.

For `C[C@@H](c1c[nH]c2cccc(F)c12)[C@@H]1NC(=O)[C@@H]2C[C@H](F)CN2C(=O)CNC(=O)[C@H](Cc2ccc(C(=O)O)cc2)NC(=O)[C@H](Cc2ccncc2)NC(=O)[C@H](Cc2ccc(-c3ccccc3)cc2)NC(=O)[C@H]2C[C@@H](Cc3ccncc3)CN2C(=O)CNC(=O)[C@H](CCN)NC(=O)[C@H](CCC(N)=O)NC(=O)[C@H](Cc2cncnc2)NC(=O)[C@@](C)(CC(=O)O)NC(=O)[C@H](Cc2c[nH]c3ccccc23)NC(=O)[C@H](CO)NC(=O)C(C)(C)NC1=O` [Example 333] (cyclo([Bip][4Pal][Phe(4-COOH)]G[Pro(cis-4-F)][Trp(βS-Me,4-F)][Aib]SW[d(αMeD)][Ala(pyrimidin-5-yl)]Q[Dab]G[dPro(4R-(4-pyridylmethyl))])), the IC50 is 0.022 nM.

For `C[C@H](O)[C@@H]1NC(=O)[C@@](C)(CC(=O)O)NC(=O)[C@H](Cc2c[nH]c3ccccc23)NC(=O)[C@H](CO)NC(=O)C(C)(C)NC(=O)[C@H]([C@@H](C)c2c[nH]c3cccc(F)c23)NC(=O)[C@@H]2C[C@H](F)CN2C(=O)CNC(=O)[C@H](Cc2ccc(C(=O)O)cc2)NC(=O)[C@H](CC23CC(C2)C3)NC(=O)[C@H](Cc2ccc([C@H]3CC[C@@H](C(=O)O)CC3)cc2)NC(=O)[C@H]2C[C@@H](Cc3ccncc3)CN2C(=O)CNC(=O)[C@H](CCN)NC(=O)[C@H](CCC(N)=O)NC1=O` [Example 334] (cyclo([Phe(4-(cis-4-COOH-cHex))][Ala(1-bicyclo(1.1.1)pentyl)][Phe(4-COOH)]G[Pro(cis-4-F)][Trp(βS-Me,4-F)][Aib]SW[d(αMeD)][aThr]Q[Dab]G[dPro(4R-(4-pyridylmethyl))])), the IC50 amounted to 0.022 nM.
